{"source": "paper PMC3277506", "about": "“Extra-Renal Elimination of Uric Acid via Intestinal Efflux Transporter BCRP/ABCG2” (PLoS ONE, 2012)", "assay": "Plasma uric acid, intestinal and renal clearance in oxonate-treated wild-type and Bcrp1 knockout mice", "assay_type": "in vivo", "conditions": "for Intestinal secretory clearance of endogenous uric acid / Renal clearance of endogenous uric acid: oxonate-treated; for Intestinal secretory clearance of endogenous uric acid: ileum closed loop; for Renal clearance of endogenous uric acid: metabolic cages", "experimental": "Male Wistar rats (280±30 g body weight) used in the present study were treated with potassium oxonate, a uric acid oxidase (uricase) inhibitor. Oxonate-treated rats were established as described previously, [48]. Briefly, rats were anesthetized with 50% urethane (2 mL/kg) and infused with 0.9% NaCl, 0.5% oxonate and 4% mannitol solution from the femoral vein at the flow rate of 3 mL/hr. As a bolus, 0.9% NaCl, 1.5% oxonate and 4% mannitol solution was administered from the jugular vein at 6 mL/kg. After equilibration for 80 min, blood, urine and bile samples were collected at 20-min intervals. When [^14C]uric acid (2 µCi/rat) was used, it was intravenously injected from the jugular vein after oxonate treatment for 80 min. In order to suppress the uricolysis of [^14C]uric acid by intestinal flora, animals received orally non-absorbed antibiotics, polymyxin B, kanamycin, and vancomycin at daily doses of 50, 50 and 20 mg/kg, respectively, for 7 days before this animal study. Urine and bile were collected at 20-min intervals, and blood samples were drawn at 1, 5, 10, 20, 40, 60, 80, 100 and 120 min. Urine and bile were collected from bladder and bile ducts, respectively, and blood from the jugular vein. In mice, urine was collected for 24 hours by using metabolic cages (Natsume, Tokyo, Japan).\nMice were treated with oxonate (intraperitoneal injection of 200 mg/kg oxonate in 1% arabic gum solution) at 1 hr before injection of PB solution into the intestinal loop. Blood was withdrawn from the jugular vein at 1, 30 and 60 min. At 60 min, the intestinal luminal content was collected for measurement of intestinally secreted uric acid.\nThe following equation was used to calculate intestinal secretory clearance (µL/min/cm loop) and estimated total intestinal secretory clearance (CLintestine, estimated) (mL/min): [drawing 1] [drawing 2] [drawing 3] where A is the amount of uric acid secreted into the intestinal lumen of each loop for 60 min, L is the length of the intestine, and AUC is area under the plasma concentration-time curve.", "data": [{"compound": "O=c1[nH]c(=O)c2[nH]c(=O)[nH]c2[nH]1", "note": "[uric acid]", "values": [{"measurement": "Intestinal secretory clearance of endogenous uric acid", "setting": "Bcrp1−/− mice", "result": "0.61 ± 0.08", "unit": "µL/min/cm"}, {"measurement": "Renal clearance of endogenous uric acid", "setting": "Bcrp1−/− mice", "result": "16.0 ± 1.77", "unit": "µL/min"}, {"measurement": "Plasma uric acid level in Bcrp1−/− mice compared with wild-type mice", "setting": "after oxonate treatment", "result": "much higher"}, {"measurement": "Intestinal secretory clearance of endogenous uric acid", "setting": "wild-type mice", "result": "1.04 ± 0.11", "unit": "µL/min/cm"}, {"measurement": "Renal clearance of endogenous uric acid", "setting": "wild-type mice", "result": "23.5 ± 1.42", "unit": "µL/min"}]}]}
